Test in all cases: relative viability (nuclei count vs DMSO), 5 days (fraction); higher = more cells survive
Compound in the test “Crenolanib + AZD7762”: CC1(COc2ccc3c(c2)ncn3-c2ccc3cccc(N4CCC(N)CC4)c3n2)COC1 [Crenolanib] + NC(=O)Nc1cc(-c2cccc(F)c2)sc1C(=O)N[C@H]1CCCNC1 [AZD7762] (partner 0.2 µM)
The essentials:
(§1)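 Each reported value is a median over duplicate plates. It expresses relative viability: treated-well nuclei count divided by vehicle-well nuclei count. Lung cancer cell lines in 1536-well plates were dosed by pin tool a day after seeding, alone with one drug or with a fixed anchor-drug dose plus five library-drug doses (not always all listed) in √10 steps, and nuclei were counted after 5 days.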

Compound in the test “Tivantinib + Foretinib”: O=C1NC(=O)[C@@H](c2cn3c4c(cccc24)CCC3)[C@@H]1c1c[nH]c2ccccc12 [Tivantinib] + COc1cc2c(Oc3ccc(NC(=O)C4(C(=O)Nc5ccc(F)cc5)CC4)cc3F)ccnc2cc1OCCCN1CCOCC1 [Foretinib] (partner 0.25 µM)
The essentials: as §1

Compound in the test “Tivantinib + Crizotinib”: O=C1NC(=O)[C@@H](c2cn3c4c(cccc24)CCC3)[C@@H]1c1c[nH]c2ccccc12 [Tivantinib] + C[C@@H](Oc1cc(-c2cnn(C3CCNCC3)c2)cnc1N)c1c(Cl)ccc(F)c1Cl [Crizotinib] (partner 1 µM)
The essentials: as §1

Compound in the test “Crenolanib + Olaparib”: CC1(COc2ccc3c(c2)ncn3-c2ccc3cccc(N4CCC(N)CC4)c3n2)COC1 [Crenolanib] + O=C(c1cc(Cc2n[nH]c(=O)c3ccccc23)ccc1F)N1CCN(C(=O)C2CC2)CC1 [Olaparib] (partner 8 µM)
The essentials: as §1

Take H3255: the relative viability with Crenolanib + AZD7762 (first compound 0.01 µM) came to 1.05; with Crenolanib + AZD7762 (first compound 0.03162 µM), 0.761; in the test with Crenolanib + AZD7762 (first compound 0.1 µM) it was 0.907; with Crenolanib + AZD7762 (first compound 0.3162 µM) it was 0.835; in the test with Crenolanib + AZD7762 (first compound 1 µM) it was 0.797; with Tivantinib + Foretinib (first compound 0.01 µM), 0.806. In addition, the relative viability with Tivantinib + Foretinib (first compound 0.03162 µM) amounted to 0.933; with Tivantinib + Foretinib (first compound 0.1 µM) it was 0.802; with Tivantinib + Crizotinib (first compound 0.01 µM), 0.905; in the test with Tivantinib + Crizotinib (first compound 0.03162 µM), 0.922; in the test with Tivantinib + Crizotinib (first compound 0.1 µM), 0.763; with Crenolanib + Olaparib (first compound 0.01 µM), 0.57. For the same cell line, the relative viability came to 0.541 with Crenolanib + Olaparib (first compound 0.03162 µM), 0.552 in the test with Crenolanib + Olaparib (first compound 0.1 µM), 0.586 in the test with Crenolanib + Olaparib (first compound 0.3162 µM) and 0.531 with Crenolanib + Olaparib (first compound 1 µM).
For HARA, the relative viability stood at 0.399 in the test with Crenolanib + AZD7762 (first compound 0.01 µM); 0.391 with Crenolanib + AZD7762 (first compound 0.03162 µM); 0.588 in the test with Crenolanib + AZD7762 (first compound 0.1 µM); 0.248 with Crenolanib + AZD7762 (first compound 0.3162 µM); 0.509 with Crenolanib + AZD7762 (first compound 1 µM); 0.864 with Tivantinib + Foretinib (first compound 0.01 µM). The relative viability in the test with Tivantinib + Foretinib (first compound 0.03162 µM) amounted to 0.795; in the test with Tivantinib + Foretinib (first compound 0.1 µM) it was 0.935; in the test with Tivantinib + Foretinib (first compound 0.3162 µM), 0.643; with Tivantinib + Crizotinib (first compound 0.01 µM) it was 1.07; with Tivantinib + Crizotinib (first compound 0.03162 µM) it was 1.01; with Tivantinib + Crizotinib (first compound 0.1 µM) it was 1.01. Further, the relative viability with Tivantinib + Crizotinib (first compound 0.3162 µM) worked out at 0.878; with Crenolanib + Olaparib (first compound 0.01 µM), 0.846; in the test with Crenolanib + Olaparib (first compound 0.03162 µM), 0.949; in the test with Crenolanib + Olaparib (first compound 0.1 µM) it was 0.707; with Crenolanib + Olaparib (first compound 0.3162 µM) it was 0.87; with Crenolanib + Olaparib (first compound 1 µM), 0.683.
For HCC-15, the relative viability amounted to 1.07 with Crenolanib + AZD7762 (first compound 0.01 µM); 1.15 with Crenolanib + AZD7762 (first compound 0.03162 µM); 0.961 with Crenolanib + AZD7762 (first compound 0.1 µM); 0.607 in the test with Crenolanib + AZD7762 (first compound 0.3162 µM); 1.17 in the test with Crenolanib + AZD7762 (first compound 1 µM); 1.04 with Tivantinib + Foretinib (first compound 0.01 µM). Further, the relative viability in the test with Tivantinib + Foretinib (first compound 0.03162 µM) is 1.01; with Tivantinib + Foretinib (first compound 0.1 µM) it was 0.991; with Tivantinib + Foretinib (first compound 0.3162 µM) it was 0.986; with Tivantinib + Crizotinib (first compound 0.01 µM) it was 0.722; with Tivantinib + Crizotinib (first compound 0.03162 µM) it was 0.791; with Tivantinib + Crizotinib (first compound 0.1 µM) it was 0.731. The relative viability was determined as 0.853 with Tivantinib + Crizotinib (first compound 0.3162 µM); 0.828 in the test with Crenolanib + Olaparib (first compound 0.01 µM); 0.734 in the test with Crenolanib + Olaparib (first compound 0.03162 µM); 0.726 with Crenolanib + Olaparib (first compound 0.1 µM); 0.631 in the test with Crenolanib + Olaparib (first compound 0.3162 µM); 0.63 with Crenolanib + Olaparib (first compound 1 µM).
As for HCC-78, the relative viability in the test with Crenolanib + AZD7762 (first compound 0.01 µM) came out at 0.629; with Crenolanib + AZD7762 (first compound 0.03162 µM), 0.619; with Crenolanib + AZD7762 (first compound 0.1 µM), 0.733; in the test with Crenolanib + AZD7762 (first compound 0.3162 µM) it was 0.477; with Crenolanib + AZD7762 (first compound 1 µM), 0.567; with Tivantinib + Foretinib (first compound 0.01 µM), 0.548. Besides, the relative viability with Tivantinib + Foretinib (first compound 0.03162 µM) is 0.547; with Tivantinib + Foretinib (first compound 0.1 µM), 0.539; in the test with Tivantinib + Foretinib (first compound 0.3162 µM) it was 0.441; with Tivantinib + Crizotinib (first compound 0.01 µM) it was 0.341; with Tivantinib + Crizotinib (first compound 0.03162 µM), 0.321; with Tivantinib + Crizotinib (first compound 0.1 µM), 0.317. Further, the relative viability with Tivantinib + Crizotinib (first compound 0.3162 µM) was determined as 0.206; in the test with Crenolanib + Olaparib (first compound 0.01 µM), 0.998; with Crenolanib + Olaparib (first compound 0.03162 µM), 0.86; with Crenolanib + Olaparib (first compound 0.1 µM) it was 0.678; with Crenolanib + Olaparib (first compound 0.3162 µM) it was 0.826; with Crenolanib + Olaparib (first compound 1 µM) it was 0.745.
Consider HCC-366, for which the relative viability with Crenolanib + AZD7762 (first compound 0.01 µM) was found to be 0.689; in the test with Crenolanib + AZD7762 (first compound 0.03162 µM), 0.327; in the test with Crenolanib + AZD7762 (first compound 0.1 µM), 0.333; with Crenolanib + AZD7762 (first compound 0.3162 µM), 0.363; with Crenolanib + AZD7762 (first compound 1 µM), 0.474; with Tivantinib + Foretinib (first compound 0.01 µM), 0.89. For the same cell line, the relative viability with Tivantinib + Foretinib (first compound 0.03162 µM) is 0.852; in the test with Tivantinib + Foretinib (first compound 0.1 µM) it was 0.929; with Tivantinib + Foretinib (first compound 0.3162 µM), 0.912; with Tivantinib + Crizotinib (first compound 0.01 µM), 0.641; with Tivantinib + Crizotinib (first compound 0.03162 µM), 0.559; with Tivantinib + Crizotinib (first compound 0.1 µM), 0.43. Further, the relative viability with Tivantinib + Crizotinib (first compound 0.3162 µM) was found to be 0.672; in the test with Crenolanib + Olaparib (first compound 0.01 µM), 0.414; in the test with Crenolanib + Olaparib (first compound 0.03162 µM), 0.362; with Crenolanib + Olaparib (first compound 0.1 µM), 0.344; with Crenolanib + Olaparib (first compound 0.3162 µM) it was 0.509; with Crenolanib + Olaparib (first compound 1 µM), 0.332.
